Assay results: patent US20120003270A1, “6-SUBSTITUTED ISOFLAVONOID COMPOUNDS AND USES THEREOF” (priority 2008, published 2012)

Experiments:
TXA2 = TXA2 synthesis in RA-stimulated U937 cells; format: cell-based, human; details: A23187 0.5 μM, 30 min
Protocol: U937 cells were thawed and resuspended in RPMI and 10% FCS at 2×10^5 cells per ml. The cells were incubated in 5% CO2 at 37° C. and expanded in growing culture to at least 6.4×10^7 total cells. The cells were then resuspended in fresh medium and cultured with 5 μM retinoic acid (RA) at 2×10^5 cells per ml for a further 3 days (72 h). RA treated cells were washed 2× in serum-free RPMI and resuspended in serum-free medium at 5×10^6 cells per ml. The cells were aliquotted into Teflon tubes at 1 ml per tube. Working stock solutions of compounds (1) and (3) were prepared at 0.1 mM, 1 mM and 10 mM as described above. For each working dilution, 10 μl was added to 1 ml cells to achieve a final concentration of 0 (DMSO alone), 1, 10, and 100 μM for each test compound. Cells were incubated in triplicate with each concentration of test compound for 15 min at 37° C. After 15 min pre-incubation, each 1 ml tube of cells received 5 μl of a […] solution of the calcium ionophore A23187 (to achieve 0.5 μM A23187). Incubation at 37° C. was continued for a further 30 min. After incubation, supernatants were collected by centrifugation at 2000 rpm for 10 min and stored at −20° C. until required for assay.

red blood cells (RBC) = experiment: Peroxyl radical (AAPH)-induced red blood cell lysis; format: cell-based; details: test compounds at 1 μM; AAPH 150 mM; vehicle 40.0
Protocol: Freshly collected heparinised venous blood (10 ml, on ice) was aliquotted into 1.8 ml sterile eppendorf tubes and centrifuged for 10 minutes at 2600 rpm at 4° C. Plasma and buffy coat layers were removed (approximately 900 μl) and packed red blood cells (RBC) were then washed by the addition of 900 μl of sterile, ice cold PBS. This washing procedure was repeated twice. Packed RBC were resuspended by the addition of 900 μl of ice-cold, sterile PBS (and termed RBC stock). RBC stocks were stored at 4° C. for a maximum of three days. All working suspensions of RBC were prepared fresh daily by diluting 200 μl of RBC stock into 10 ml of ice-cold, sterile PBS and 50 μl added to each well.
Stocks of AAPH were freshly prepared for individual experiments as follows. […] Turbidity of RBC suspensions were monitored using a Tecan microplate reader at 690 nm (37° C.) with gentle vortexing. Assays were performed in quadruplicate and readings were taken every 5 minutes over 5 hours. RBC lysis curves were constructed by plotting absorbance (mean of 4 readings) against time. Time to half-lysis was calculated by taking the highest absorbance reading (no lysis) and the lowest absorbance reading (maximum lysis). The sum of these two readings divided by two gave the absorbance at half-lysis. Simple regression analysis was used to calculate the time at which half-lysis absorbance occurred.

IFN-γ and IL-6 = experiment: Splenocyte cytokine production (ELISA); format: cell-based, mouse; details: 10 μM, 3 day incubation, culture supernatant
Protocol: Male Skh-1:HR1 (hairless) mice, approximately six weeks old were killed by cervical dislocation. Single cell suspensions were made from the spleen and erythrocytes were lysed in buffer (0.14M NH4Cl, 17 mM Tris, pH 7.2). The remaining splenocytes were cultured in RPMI-1640 (Gibco) supplemented with 10% (v:v) FBS, 200 mM L-glutamine, penicillin/streptomycin and […] 2-mercaptoethanol. Splenocytes were added to quadruplicate wells containing either concanavalin A (ConA, Sigma-Aldrich—0.4 μg/well), LPS (Sigma-Aldrich—1 μg/well) or no mitogen, as well 10 μM of test compound in DMSO. Samples were analysed after a 3 day incubation at 37° C. in 5% CO2 in air. Methylthiazoletetrazolium (MTT) is bioreduced by viable cells into a coloured formazan product that is soluble in DMSO. Thus the quantity of formazan product is directly proportional to the number of living cells in culture, and can be measured using a spectrophotometer at 570 nm. MTT was added to each well, incubated for a further 4 hrs and then colour developed with 0.04N HCl in isopropanol. Culture supernatants were stored after collection at −80° C. and both T and B cells analysed by ELISA (BD Biosciences) for IFN-γ (a Th-1 cytokine) and for T cells alone, IL-6 (a Th-2 cytokine).

TNFα = TNFα synthesis in RAW 264.7 (ELISA); format: cell-based, mouse; details: LPS 50 ng/ml, 16 hrs
Protocol: The mouse macrophage cell line RAW 264.7 was cultured in DMEM supplemented with foetal calf serum (FCS), 2 mM glutamine and 50 U/ml penicillin/streptomycin. Cells were treated with either test compounds (in 0.025% DMSO) or vehicle alone, and added one hour before 50 ng/ml LPS. After incubation for 16 hrs, culture media was collected for PGE2 or TXB2 measurement by ELISA (Cayman Chemical), and TNFα measurement using an ELISA (Becton Dickinson).

## O=C(O)C1CCCN1Cc1cc2c(cc1O)OCC(c1ccc(O)cc1)=C2 (centres unmarked) [Compound (3)]
TXA2; 1 μM
  TXB2: 18.434 ± 0.367 pg
TXA2; 10 μM
  TXB2: 26.276 ± 9.76 pg
TXA2; 100 μM
  TXB2: 12.668 ± 3.506 pg
Red blood cells (RBC)
  Time taken to reach half-lysis, time: 88.6 min
IFN-γ and IL-6
  Effect on cytokine synthesis (INF-γ, IL-6): did decrease the cytokines produced by T cells in particular
TNFα; 1 μM
  TNFα: 26677.52 ± 815.64 pg/mL
TNFα; 10 μM
  TNFα: 45429.44 ± 1630.68 pg/mL

## CN(C)Cc1cc2c(cc1O)OCC(c1ccc(O)cc1)=C2 [Compound (1)]
TXA2; 1 μM
  TXB2: 35.833 ± 1.866 pg
TXA2; 10 μM
  TXB2: 41.697 ± 2.275 pg
TXA2; 100 μM
  TXB2: 21.708 ± 5.439 pg
Red blood cells (RBC)
  Time taken to reach half-lysis, time: 154.6 min
IFN-γ and IL-6
  Effect on cytokine synthesis (INF-γ, IL-6): concomitant reduction on the synthesis of INF-γ and IL-6
TNFα; 1 μM
  TNFα: 40002.31 ± 694.8 pg/mL
TNFα; 10 μM
  TNFα: 41958.94 ± 837.04 pg/mL
